Paper PMC6684085, “Intragenic antimicrobial peptides (IAPs) from human proteins with potent antimicrobial and anti-inflammatory activity” (PLoS ONE, 2019)
Converted amounts (≈) assume the structure as drawn. “Also recorded” adds a separate entry of the source. Ends that are not written are not given here.

Tests used:
[1] = system: mouse BALB/cN macrophage (J774A.1) cell line; type: cell-based; settings: for Viability of J774A.1 macrophages versus DMEM untreated control: 24 h exposure, peptide at 0.1, 1 and 10 μM, flow cytometry, 20,000 events/sample, p<0.05
Experimental: (§1) Fig 4 a. Cytotoxicity evaluation in the mouse BALB/cN macrophage (J774A.1) cell line after exposure for 24 h at 0.1, 1.0 and 10 μM concentrations. DMEM was used as a negative control. Cells were analyzed by flow cytometry (20,000 events/sample). b. Evaluation of the cell death mechanism mediated by Hs02 in J774A.1 cells after exposure for 24 h at 0.1, 1.0 and 10 μM concentrations using annexin-V FITC (apoptosis marker) and propidium iodide (PI, necrosis marker) staining. Cells were analyzed by flow cytometry (20,000 events/sample). The values are expressed as mean ± SEM. * p<0.05 and **** p<0.0001 versus DMEM untreated control group. # p<0.05 versus apoptosis staining for each respective group.
(§2) The cytotoxicity of Hs IAPs was performed using human red blood cells in strict accordance with relevant guidelines and regulations (Ethical committee–UnB # 1.939.989 as described elsewhere. Cytotoxic effect of IAPs was evaluated by MTT assay and flow cytometry analysis using murine peritoneal macrophages from C57BL/6 mice or a BALB/cN-derived macrophages (J774A.1) cell line. For cell viability assays using MTT, murine peritoneal macrophages from C57BL/6 mice were plated in triplicate wells in 96-well plates at a density of 1.0 × 10^5 cells per well and stimulated or not with different concentrations of Hs IAPs (0.1, 1 and 10 μM) and incubated for 24h. After that, 20μl of a solution of 3-(4,5-Dimethyl-thiazol-2-yl)-2,5-diphenyl-tetrazolium bromide (MTT, Sigma) was added to each well (5 mg/ml of MTT in phosphate buffered saline). The plates were incubated at 37°C for 3 hours and then processed as previously described. Cell death was analysed by annexin V-FITC/PI staining followed by flow cytometry analysis. Mouse BALB/cN macrophage (J774A.1) cell line was acquired from ATCC (number TIB-67) and cultured in Dulbecco’s Modified Eagle’s Medium (DMEM) (Life) supplemented with 10% heat inactivated foetal bovine serum (Life) and 1% antibiotic solution (100 IU/mL penicillin/100 μg/mL streptomycin, Life) at 37°C, 5% CO2, in a humidified atmosphere. […]

[2] = system: Staphylococcus epidermidis 12228; experiment: microbe, parasite or virus in culture; type: cell-based; settings: ATCC 12228, peptides 0.5 to 256 μM, 100 μL, 96-well, three biological repetitions with 2 technical replicates, mean ± SD
Experimental: (§3) Protocols M7-A10 [46], M27-A3 [47] and M38-A2 [48] from Clinical & Laboratory Standards Institute (CLSI) were used to test the susceptibility of bacteria, yeasts and filamentous fungi to the Hs IAPs. Briefly, Hs IAPs ranging from 0.5 to 256 μM were tested against microorganisms in a final volume of 100μL. Tests were performed in polystyrene flat-bottom 96 wells microplates and each test consisted of three biological repetitions with 2 technical replicates each. The minimum inhibitory concentration (MIC) was defined as the concentration that no cells/hyphae were detected when visualized by optical microscopy. ATCC reference strains: Candida albicans 90028, Staphylococcus aureus 25923, Pseudomonas aeruginosa 27853, Trichophyton rubrum 28189, Staphylococcus epidermidis 12228.

[3] = system: Staphylococcus aureus 25923; experiment: microbe, parasite or virus in culture; type: cell-based; settings: ATCC 25923, peptides 0.5 to 256 μM, 100 μL, 96-well, three biological repetitions with 2 technical replicates, mean ± SD
Experimental: as §3

[4] = system: Pseudomonas aeruginosa 27853; experiment: microbe, parasite or virus in culture; type: cell-based; settings: ATCC27853, ATCC 27853, peptides 0.5 to 256 μM, 100 μL, 96-well, three biological repetitions with 2 technical replicates, mean ± SD, read-out: Minimum inhibitory concentration (μM ± SD) P. aeruginosa
Experimental: as §3

[5] = system: Candida albicans 90028; experiment: microbe, parasite or virus in culture; type: cell-based; settings: ATCC90028, ATCC 90028, peptides 0.5 to 256 μM, 100 μL, 96-well, no cells seen by optical microscopy, three biological repetitions with 2 technical replicates, mean ± SD, read-out: Minimum inhibitory concentration (μM ± SD) C. albicans
Experimental: as §3

[6] = system: human red blood cells; type: cell-based
Experimental: The cytotoxicity of Hs IAPs was performed using human red blood cells in strict accordance with relevant guidelines and regulations (Ethical committee–UnB # 1.939.989 as described elsewhere. Cytotoxic effect of IAPs was evaluated by MTT assay and flow cytometry analysis using murine peritoneal macrophages from C57BL/6 mice or a BALB/cN-derived macrophages (J774A.1) cell line. For cell viability assays using MTT, murine peritoneal macrophages from C57BL/6 mice were plated in triplicate wells in 96-well plates at a density of 1.0 × 10^5 cells per well and stimulated or not with different concentrations of Hs IAPs (0.1, 1 and 10 μM) and incubated for 24h. After that, 20μl of a solution of 3-(4,5-Dimethyl-thiazol-2-yl)-2,5-diphenyl-tetrazolium bromide (MTT, Sigma) was added to each well (5 mg/ml of MTT in phosphate buffered saline). The plates were incubated at 37°C for 3 hours and then processed as previously described. Cell death was analysed by annexin V-FITC/PI staining followed by flow cytometry analysis. Mouse BALB/cN macrophage (J774A.1) cell line was acquired from ATCC (number TIB-67) and cultured in Dulbecco’s Modified Eagle’s Medium (DMEM) (Life) supplemented with 10% heat inactivated foetal bovine serum (Life) and 1% antibiotic solution (100 IU/mL penicillin/100 μg/mL streptomycin, Life) at 37°C, 5% CO2, in a humidified atmosphere. J774A.1 cells were seeded into 96-well culture plates in DMEM culture medium for 2 h at 37°C and 5% CO2 in a humid atmosphere at a density of 1.0 × 10^5 cells, and stimulated or not with different concentrations of Hs IAPs (0.1, 1 and 10 μM). The plates were incubated for 24 h, washed in PBS, and resuspended in 100 μL of binding buffer (10 mM HEPES/NaOH pH 7.4, 140 mM NaCl, ad 2.5 mM CaCl2). Cells were then treated with 2 μL of annexin-V FITC in Aqueous buffered solution containing BSA and ≤0.09% sodium azide (BD Pharmingen) and 2 μL of propidium iodide (PI, 50 μg/mL) for 15 min in the dark at room temperature. Next, 100 μL binding buffer was added and a total of 20,000 events were collected per sample in flow cytometer (BD LSRFortessa).

[7] = system: mouse BALB/cN macrophage (J774A.1) cell line; experiment: Annexin-V FITC / propidium iodide staining by flow cytometry; type: cell-based; settings: 24 h exposure at 0.1, 1.0 and 10 μM; flow cytometry, 20,000 events/sample
Experimental: as §1
The cytotoxicity of Hs IAPs was performed using human red blood cells in strict accordance with relevant guidelines and regulations (Ethical committee–UnB # 1.939.989 as described elsewhere. Cytotoxic effect of IAPs was evaluated by MTT assay and flow cytometry analysis using murine peritoneal macrophages from C57BL/6 mice or a BALB/cN-derived macrophages (J774A.1) cell line. For cell viability assays using MTT, murine peritoneal macrophages from C57BL/6 mice were plated in triplicate wells in 96-well plates at a density of 1.0 × 10^5 cells per well and stimulated or not with different concentrations of Hs IAPs (0.1, 1 and 10 μM) and incubated for 24h. […]

[8] = system: murine peritoneal macrophages from C57BL/6 mice; experiment: MTT reduction assay in primary macrophages; type: cell-based, mouse; settings: 24 h incubation, triplicate wells (S1 Fig)
Experimental: as §2

[9] = system: murine peritoneal macrophages from C57BL/6 mice; experiment: LPS-induced TNF-α release by ELISA; type: cell-based, mouse; settings: macrophages primed with 500 ng/mL LPS for 4 h, then peptide for 24 h, Hs02 at 0.1, 1 and 10 μM, DS01 at 1 and 10 μM
Experimental: Fig 5 TNF-α secretion and lipid droplet biogenesis evaluation. a. Murine peritoneal macrophages from C57BL/6 mice were pre-treated or not with LPS (500 ng/ml) for 4h and then stimulated or not with Hs IAPs (0.1, 1.0 and 10 μM), incubated for 24h and TNF-α levels measured by ELISA b. In parallel, murine peritoneal macrophages from C57BL/6 mice were pre-treated or not with LPS (500 ng/ml) for 4h and then stimulated or not with Hs IAPs (0.1 μM), incubated for 24h and lipid droplets were quantitated by flow cytometry (B). The values are expressed as mean ±SEM. * p<0.05 and **** p<0.0001 versus DMEM control group. […] The digits of 121, 119, 364 and 122 are best readings.
The modulation of pro-inflammatory cytokine TNF-α secretion induced by IAPs was evaluated by ELISA. […] Supernatant TNF-α concentration was detected by ELISA with a R&D Systems (USA) kit. […] Plates were read after adding the stop solution at 450nm using SpectraMax M3spectrophotometer (Molecular Devices).
Supplementary file pone.0220656.s004.tif: S3 Fig TNF-α release in murine macrophages. Murine peritoneal macrophages from C57BL/6 mice were pre-treated or not with LPS (500 ng/ml) for 4h and then stimulated or not with the AMP DS01 (10, and 1 μM), incubated for 24h and TNF-α levels measured by ELISA. The values are expressed as mean ±SEM. * p<0.05 and **** p<0.0001 versus DMEM control group. […]

OO [hydrogen peroxide (H2O2), hydrogen peroxide]
Viability of J774A.1 macrophages versus DMEM untreated control [1]: decreased significantly (p<0.05) the cell viability

CNC(C)C1CCC(N)C(OC2C(N)CC(N)C(OC3OCC(C)(O)C(NC)C3O)C2O)O1 (centres unmarked) [Gentamicin]
MIC ([2]; Staphylococcus epidermidis, ATCC12228, read-out: Minimum inhibitory concentration (μM ± SD) S. epidermidis): 0.26 µM (≈ 0.124 µg/mL)
MIC ([3]; Staphylococcus aureus, ATCC25923, read-out: Minimum inhibitory concentration (μM ± SD) S. aureus): 0.26 µM (≈ 0.124 µg/mL)
MIC [4]: 0.13 µM (≈ 0.0621 µg/mL)

OC(Cn1cncn1)(Cn1cncn1)c1ccc(F)cc1F [Fluconazol]
MIC [5]: 1.63 µM (≈ 0.499 µg/mL)

KWAVRIIRKFIKGFIS-NH2 [Hs02]
Hemolytic activity SC50 [6]: > 128 µM
Apoptosis (annexin-V FITC) or necrosis (PI) in J774A.1 cells versus DMEM control [7]: did not present significant apoptosis or necrosis; also recorded: No significant apoptosis or necrosis
Viability of J774A.1 macrophages versus DMEM untreated control [1]: did not cause significant (p<0.05) reduction in the viability
Concentration tolerated by the J774A.1 macrophage cell line ([1]; flow cytometry, 24 h, 0.1, 1 and 10 μM tested): ≥ 10 µM

GFKDLLKGAAKALVKTVLF-NH2 [Asc-8]
Hemolytic activity SC50 [6]: 32 µM

CC1(C)S[C@@H]2[C@H](NC(=O)[C@H](N)c3ccccc3)C(=O)N2[C@H]1C(=O)O [Ampicilin]
Minimum inhibitory concentration (μM ± SD) S. epidermidis [2]: 43.10 ± 0.0 µM (≈ 15.1 µg/mL)
Minimum inhibitory concentration (μM ± SD) S. aureus [3]: 5.38 ± 0.0 µM (≈ 1.88 µg/mL)

C[C@@H]1[C@H](O)[C@@H](C)/C=C/C=C/C=C/C=C/C=C/C=C/C=C/[C@H](O[C@@H]2O[C@H](C)[C@@H](O)[C@H](N)[C@@H]2O)C[C@@H]2O[C@](O)(C[C@@H](O)C[C@@H](O)[C@H](O)CC[C@@H](O)C[C@@H](O)CC(=O)O[C@H]1C)C[C@H](O)[C@H]2C(=O)O [Amphotericin b]
MIC [5]: 0.27 µM (≈ 0.25 µg/mL)

FLREFHKWIERVVGWLGKVF-NH2 [Hs03]
Concentration that reduced the viability of peritoneal macrophages to 50% [8]: approximately 10 μM
Hemolytic activity SC50 [6]: > 128 µM

GLWSTIKQKGKEAAIAAAKAAGQAALGAL-NH2 [DS01]
Peptide concentration that inhibits LPS-induced release of TNF-α [9]: > 10 µM
Hemolytic activity SC50 [6]: > 128 µM

LKMLGMLFHNIRNILKTV-NH2 [Hs01]
Hemolytic activity SC50 [6]: > 128 µM

LFNNYITAALKLLEKLYKV-NH2 [Hs04]
Concentration that reduced the viability of peritoneal macrophages to 50% [8]: approximately 10 μM
Hemolytic activity SC50 [6]: 64 µM
